Test results reported in patent publication US11369650B2, “Methods for reversing multiple resistance in animal cells” (priority 2004, dated 2022).

Assays:
[1] = system: U373 cells; experiment: Oncolysis of U373 cells by dl520 with Irinotecan and Trichostatin A, crystal violet; format: cell-based; conditions: U373, 2 μM Irinotecan
Description: 200,000 U373 cells were plated in a 6 well plate. After 24 hours either 2 μM Irinotecan or only 1 μM Trichostatin A or 1 μM Irinotecan+0.5 μM Trichostatin were added to the medium. After 24 hours of incubation the cells were infected with 10, 20 and 30 pfu/cell dl520. After 3-5 days the analysis was performed using crystal violet staining. The assays were performed in duplicate.
The further 6 well plates 2, 3 and 4 depicted in FIG. 22, herein also referred to as panels 2, 3 and 4, were basically treated in accordance with this scheme. The individual wells were inoculated with U373 cells as previously described and the cells cultivated therein. The wells were inoculated with 10, 20 or 30 pfu/cell dl520 in duplicate, whereby the difference between the three 6 well plates resided in the kind of cytostatics used. In panel 2 2 μM Irinotecan, in panel 3 […] and in panel 4 1 μM Irinotecan and 0.5 μM Trichostatin A was added to the individual plates.

[2] = system: U373 tumour cells; experiment: Southern blot of dl520 replication after Irinotecan; format: cell-based; conditions: U373, 5 μM Irinotecan 24 h before 10 pfu/cell dl520
Description: In order to determine the effect of Irinotecan on adenoviral replication 10^6 U373 tumour cells were plated in 10 cm^2 Petri dishes. In a first reaction 5 μM Irinotecan was added after 24 hours. After another 24 hours the cells were infected with 10 pfu/cell dl520. After incubation of 3 days without Irinotecan DNA was isolated in accordance with the procedure described in example 10.
In a parallel reaction the thus prepared U373-cells were not pre-incubated with Irinotecan. After 48 hours of cultivating the cells without Irinotecan, they were infected with 10 pfu/cell dl520 and subsequently incubated without Irinotecan for another 3 days. DNA was isolated as described above.
Subsequently […] were digested with restriction enzyme Kpn I and a Southern Blot analysis performed. A part of the adenoviral genome (position: 22734-24235) generated by means of PCR was used as a probe.

[3] = system: U373 tumour cells; experiment: Southern blot of dl520 replication after Trichostatin A; format: cell-based; conditions: U373, 0.25, 0.5 and 0.75 μM Trichostatin A, 10 pfu/cell dl520
Description: In order to test the effect of Trichostatin A on adenoviral replication, 10^6 U373 tumour cells were plated in 10 cm^2 Petri dishes. After 24 hours 0.25, 0.5 and 0.75 μM Trichostatin A was added. After another 24 hours the cells were infected with 10 pfu/cell dl520.
After 3 days of incubation in medium without Trichostatin DNA was isolated. Subsequently 2 μg DNA were digested with restriction enzyme Kpn I and a Southern Blot analysis performed. A part of the adenoviral genome (position: 22734-24235) generated by means of PCR was used as a probe.

[4] = system: Coxsackievirus-adenovirus-receptor (CAR) on U373 cells; experiment: FACS analysis of CAR expression; format: cell-based; conditions: U373, 1 μM Trichostatin, 24 hours
Description: 200,000 U373 cells were plated in 6 well plates. After 24 hours the cells were cultivated with 1 μM Trichostatin for 24 hours. After another 24 hours the cells were isolated. Subsequently, analysis of CAR expression was performed according to a standard protocol using Facs-analysis and the primary antibody anti-CAR clone RmcB from the company Upstate, and a rabbit-anti-mouse FITC as secondary antibody (company DAKO).

[5] = system: U2OS cells; experiment: Oncolytic assay with daunorubicine and dl520, crystal violet; format: cell-based, human; conditions: 40 ng/ml
Description: (§1) In the practising of the oncolytic assays the following procedure was followed: 200,000 cells (HeLa and U2OS, respectively) were plated into each well of a 6 well plate. On the next day 40 ng/ml (final concentration) of daunorubicine were added. After 3 hours of incubation the cells were infected with 10 and 30 pfu dl520/cell, respectively. Subsequently, the cells were incubated in cytostatic free medium. After 3-5 days the cells were stained using crystal violet.

[6] = system: HeLa cells; experiment: as above; format: cell-based; conditions: 40 ng/ml
Description: as §1

Q: CCc1c2c(nc3ccc(OC(=O)N4CCC(N5CCCCC5)CC4)cc13)-c1cc3c(c(=O)n1C2)COC(=O)[C@]3(O)CC [Irinotecan] was tested. Which “dl520 titer at which the cells were lysed” value [1] did it give?
A: 30 pfu/cell

Q: What about the “adenoviral (dl520) replication compared to untreated control” value [2] of the same molecule?
A: significantly increased

Q: Which “viral (dl520) replication compared to untreated controls” value [3] does the source give for CC(/C=C/C(=O)NO)=C\[C@@H](C)C(=O)c1ccc(N(C)C)cc1 [Trichostatin A] here?
A: significantly increased

Q: And the CAR-positive cells [4]?
A: 56.2%

Q: What does the source list for COc1cccc2c1C(=O)c1c(O)c3c(c(O)c1C2=O)C[C@@](O)(C(C)=O)C[C@@H]3O[C@H]1C[C@H](N)[C@H](O)[C@H](C)O1 [daunorubicine]?
A: effect of daunorubicine on replication of dl520 [5]: induces the replication of dl520; effect of daunorubicine on replication of dl520 [6]: induces the replication of dl520
